The record followed here is ChEMBL document CHEMBL3244075, “Synthesis and hypoglycemic activity of some substituted 2-arylthiazolo[3,2-a]pyridinium salts” (J Med Chem, 1978).

The structures appear in SMILES notation.

The subject of one data set is Rattus norvegicus. In words: Hypoglycemic activity in 48 hrs-fasted rat assessed as change in blood glucose level at dose equivalent to 102 mg of free base/kg, po measured at 4 hrs relative to control. Type of data set: functional.
Settings: not given
On to `CC(C)Oc1cccc(-c2c[n+]3ccccc3s2)c1.[O-][Cl+3]([O-])([O-])[O-]`, for which the Activity is 9%.
For `CC(=O)Nc1cccc(-c2c[n+]3ccccc3s2)c1.[O-][Cl+3]([O-])([O-])[O-]`, the Activity is given as 9%.
Same read-out and setting: the same measure for `[O-][Cl+3]([O-])([O-])[O-].c1cc[n+]2ccsc2c1`: -13%.
On the same count and under the same terms, as for `O.[O-][Cl+3]([O-])([O-])[O-].c1ccc(-c2csc3cccc[n+]23)cc1`, the figure is -12%; as for `Cc1cc[n+]2cc(-c3ccccc3)sc2c1.[O-][Cl+3]([O-])([O-])[O-]`, -29%; as for `Cc1ccc[n+]2cc(-c3ccccc3)sc12.O.[O-][Cl+3]([O-])([O-])[O-]`, -59%.
Still for that read-out and setting: as for `CN(C)/C=N/c1cccc(-c2c[n+]3ccccc3s2)c1.O.[O-][Cl+3]([O-])([O-])[O-]`, the figure is -1%; as for `O.[Cl-].c1ccc(-c2ccc(-c3c[n+]4ccccc4s3)cc2)cc1`, 13%; as for `CS(=O)(=O)c1ccc(-c2c[n+]3ccccc3s2)cc1.[O-][Cl+3]([O-])([O-])[O-]`, -6%.
As for `O=S(=O)([O-])c1ccc(-c2ccc(-c3c[n+]4ccccc4s3)cc2)cc1`, the Activity amounted to 2%.
On the same count and under the same terms, as for `Nc1ccc(-c2c[n+]3ccccc3s2)cc1.O.[O-][Cl+3]([O-])([O-])[O-]`, the figure is -7%.

The next data set has as its system Rattus norvegicus. In words: Toxicity in 48 hrs-fasted rat assessed as elevation in hepatic triglyceride level at dose equivalent to 102 mg of free base/kg, po relative to control. As to conditions: in vivo. Type of data set: organism-based.
Turning to `Cc1ccc[n+]2cc(-c3ccccc3)sc12.O.[O-][Cl+3]([O-])([O-])[O-]`, the Activity came to 200%.

For another data set, the system named is Rattus norvegicus. In words: Hypoglycemic activity in 48 hrs-fasted rat assessed as change in blood glucose level at dose equivalent to 102 mg of free base/kg, po measured at 3 hrs relative to control.
Settings: not given
It is filed as functional.
Turning to `CC(C)Oc1cccc(-c2c[n+]3ccccc3s2)c1.[O-][Cl+3]([O-])([O-])[O-]`, the Activity is given as -4%.
The same measure, in the same setting: the same measure for `CC(=O)Nc1cccc(-c2c[n+]3ccccc3s2)c1.[O-][Cl+3]([O-])([O-])[O-]`: 3%; for `[O-][Cl+3]([O-])([O-])[O-].c1cc[n+]2ccsc2c1`: -15%; for `O.[O-][Cl+3]([O-])([O-])[O-].c1ccc(-c2csc3cccc[n+]23)cc1`: -28%.
Same read-out and setting: the same measure for `Cc1cc[n+]2cc(-c3ccccc3)sc2c1.[O-][Cl+3]([O-])([O-])[O-]`: -28%.
The same measure, in the same setting: as for `Cc1ccc[n+]2cc(-c3ccccc3)sc12.O.[O-][Cl+3]([O-])([O-])[O-]`, the figure is -51%; as for `CN(C)/C=N/c1cccc(-c2c[n+]3ccccc3s2)c1.O.[O-][Cl+3]([O-])([O-])[O-]`, -1%; as for `O.[Cl-].c1ccc(-c2ccc(-c3c[n+]4ccccc4s3)cc2)cc1`, -12%.
As to `CS(=O)(=O)c1ccc(-c2c[n+]3ccccc3s2)cc1.[O-][Cl+3]([O-])([O-])[O-]`, the Activity is -6%.
The same measure, in the same setting: as for `O=S(=O)([O-])c1ccc(-c2ccc(-c3c[n+]4ccccc4s3)cc2)cc1`, the figure is 13%; as for `Nc1ccc(-c2c[n+]3ccccc3s2)cc1.O.[O-][Cl+3]([O-])([O-])[O-]`, -20%.

The subject of another data set is Rattus norvegicus. The experiment in a line: Hypoglycemic activity in 48 hrs-fasted rat assessed as change in blood glucose level at dose equivalent to 102 mg of free base/kg, po measured at 1 hr relative to control. It is filed as functional.
Settings: not given
As for `CC(C)Oc1cccc(-c2c[n+]3ccccc3s2)c1.[O-][Cl+3]([O-])([O-])[O-]`, the Activity was determined as 4%.
Same read-out and setting: the same measure for `CC(=O)Nc1cccc(-c2c[n+]3ccccc3s2)c1.[O-][Cl+3]([O-])([O-])[O-]`: 12%; for `[O-][Cl+3]([O-])([O-])[O-].c1cc[n+]2ccsc2c1`: -14%.
Still for that read-out and setting: the same measure for `O.[O-][Cl+3]([O-])([O-])[O-].c1ccc(-c2csc3cccc[n+]23)cc1`: -12%; for `Cc1cc[n+]2cc(-c3ccccc3)sc2c1.[O-][Cl+3]([O-])([O-])[O-]`: 14%; for `Cc1ccc[n+]2cc(-c3ccccc3)sc12.O.[O-][Cl+3]([O-])([O-])[O-]`: -17%.
The same measure, in the same setting: as for `CN(C)/C=N/c1cccc(-c2c[n+]3ccccc3s2)c1.O.[O-][Cl+3]([O-])([O-])[O-]`, the figure is 1%; as for `O.[Cl-].c1ccc(-c2ccc(-c3c[n+]4ccccc4s3)cc2)cc1`, -7%; as for `CS(=O)(=O)c1ccc(-c2c[n+]3ccccc3s2)cc1.[O-][Cl+3]([O-])([O-])[O-]`, 3%.
Regarding `O=S(=O)([O-])c1ccc(-c2ccc(-c3c[n+]4ccccc4s3)cc2)cc1`, the Activity was found to be 3%.
On the same count and under the same terms, the same measure for `Nc1ccc(-c2c[n+]3ccccc3s2)cc1.O.[O-][Cl+3]([O-])([O-])[O-]`: -8%.

The test system of the next data set is Rattus norvegicus. The experiment in a line: Hypoglycemic activity in 48 hrs-fasted rat assessed as change in blood glucose level at dose equivalent to 102 mg of free base/kg, po measured at 2 hrs relative to control. Type of data set: functional.
Settings: not given
In the case of `CC(C)Oc1cccc(-c2c[n+]3ccccc3s2)c1.[O-][Cl+3]([O-])([O-])[O-]`, the Activity is on record as -1%.
The same measure, in the same setting: the same measure for `CC(=O)Nc1cccc(-c2c[n+]3ccccc3s2)c1.[O-][Cl+3]([O-])([O-])[O-]`: 8%; for `[O-][Cl+3]([O-])([O-])[O-].c1cc[n+]2ccsc2c1`: -20%.
Still for that read-out and setting: the same measure for `O.[O-][Cl+3]([O-])([O-])[O-].c1ccc(-c2csc3cccc[n+]23)cc1`: -16%; for `Cc1cc[n+]2cc(-c3ccccc3)sc2c1.[O-][Cl+3]([O-])([O-])[O-]`: -4%.
On the same count and under the same terms, the same measure for `Cc1ccc[n+]2cc(-c3ccccc3)sc12.O.[O-][Cl+3]([O-])([O-])[O-]`: -42%; for `CN(C)/C=N/c1cccc(-c2c[n+]3ccccc3s2)c1.O.[O-][Cl+3]([O-])([O-])[O-]`: 0%; for `O.[Cl-].c1ccc(-c2ccc(-c3c[n+]4ccccc4s3)cc2)cc1`: -12%.
As for `CS(=O)(=O)c1ccc(-c2c[n+]3ccccc3s2)cc1.[O-][Cl+3]([O-])([O-])[O-]`, the Activity is recorded as -8%.
Still for that read-out and setting: the same measure for `O=S(=O)([O-])c1ccc(-c2ccc(-c3c[n+]4ccccc4s3)cc2)cc1`: 3%.
On the same count and under the same terms, as for `Nc1ccc(-c2c[n+]3ccccc3s2)cc1.O.[O-][Cl+3]([O-])([O-])[O-]`, the figure is 1%.

The test system of the next data set is Rattus norvegicus. In words: Hypoglycemic activity in 48 hrs-fasted rat assessed as change in blood glucose level at dose equivalent to 102 mg of free base/kg, po measured at 5 hrs relative to control. It is filed as functional.
Settings: not given
In the case of `CC(C)Oc1cccc(-c2c[n+]3ccccc3s2)c1.[O-][Cl+3]([O-])([O-])[O-]`, the Activity is -10%.
For the molecule `CC(=O)Nc1cccc(-c2c[n+]3ccccc3s2)c1.[O-][Cl+3]([O-])([O-])[O-]`, the Activity is 4%.
On the same count and under the same terms, the same measure for `[O-][Cl+3]([O-])([O-])[O-].c1cc[n+]2ccsc2c1`: -12%; for `O.[O-][Cl+3]([O-])([O-])[O-].c1ccc(-c2csc3cccc[n+]23)cc1`: -19%; for `Cc1cc[n+]2cc(-c3ccccc3)sc2c1.[O-][Cl+3]([O-])([O-])[O-]`: -22%.
For `Cc1ccc[n+]2cc(-c3ccccc3)sc12.O.[O-][Cl+3]([O-])([O-])[O-]`, the Activity is -50%.
Same read-out and setting: the same measure for `CN(C)/C=N/c1cccc(-c2c[n+]3ccccc3s2)c1.O.[O-][Cl+3]([O-])([O-])[O-]`: 22%.
On the same count and under the same terms, as for `O.[Cl-].c1ccc(-c2ccc(-c3c[n+]4ccccc4s3)cc2)cc1`, the figure is 3%; as for `CS(=O)(=O)c1ccc(-c2c[n+]3ccccc3s2)cc1.[O-][Cl+3]([O-])([O-])[O-]`, -2%.
For the molecule `O=S(=O)([O-])c1ccc(-c2ccc(-c3c[n+]4ccccc4s3)cc2)cc1`, the Activity came out at 4%.
On the same count and under the same terms, the same measure for `Nc1ccc(-c2c[n+]3ccccc3s2)cc1.O.[O-][Cl+3]([O-])([O-])[O-]`: -14%.
